Read-outs that look alike come from different tables or passages of the source.
What was measured:
[1] = biological target: T1, recombinant integrase (HIV-1 integrase) (Human immunodeficiency virus type 1 group M subtype B, UniProt P04585); test: HIV-1 integrase assay: strand transfer catalyzed by recombinant integrase; type: biochemical; details: strand transfer activity, read-out: IC50
T1 construct: Assays for the strand transfer activity of integrase were conducted in accordance with WO 02/30930 for recombinant integrase
Procedure: HIV-1 Integrase Assay: Strand Transfer Catalyzed by Recombinant Integrase
Assays for the strand transfer activity of integrase were conducted in accordance with WO 02/30930 for recombinant integrase. […] For example, the compounds prepared in Examples 1 to 5 were tested in the integrase assay and found to have the IC50 values in Table B. (Compounds 6A and 6B were not tested in this assay.)
Further description on conducting the assay using preassembled complexes is found in Wolfe, A. L. et al., J. Virol. 1996, 70: 1424-1432, Hazuda et al., J. Virol. 1997, 71: 7005-7011; Hazuda et al., Drug Design and Discovery 1997, 15: 17-24; and Hazuda et al., Science 2000, 287: 646-650.

[2] = tested on: virus containing E92Q mutation in the integrase gene; details: k = IC50(mutant)/IC50(wild type)
Procedure: (§1) An assay for measuring the inhibition of acute HIV infection with HeLa P4-2 cells in a single cycle infectivity assay was conducted using methods described in Joyce et al., J. Biol. Chem. 2002, 277: 45811, Hazuda et al., Science 2000, 287: 646, and Kimpton et al, J. Virol. 1992, 66: 2232. Proviral plasmids encoding viruses containing specific mutations in the integrase gene (N155H, Q148R, Y143R, E92Q, or G140S/Q148H) were generated by site-directed mutagenesis, and viruses were produced by transfecting 293T cells with the appropriate proviral plasmids.

[3] = tested on: virus containing Y143R mutation in the integrase gene; details: k = IC50(mutant)/IC50(wild type)
Procedure: as §1

[4] = tested on: virus containing Q148R mutation in the integrase gene; details: k = IC50(mutant)/IC50(wild type)
Procedure: as §1

[5] = tested on: virus containing G140S/Q148H mutation in the integrase gene; details: k = IC50(mutant)/IC50(wild type)
Procedure: as §1

[6] = tested on: virus containing N155H mutation in the integrase gene; details: k = IC50(mutant)/IC50(wild type)
Procedure: as §1

[7] = tested on: wild type IIIB; test: Single cycle infectivity assay in HeLa P4-2 cells, wild type virus; type: cell-based, HIV; details: single cycle infectivity, wild type IIIB, read-out: wild type IIIB IC50
[8] = tested on: HIV-1; test: Inhibition of acute HIV-1 infection of T-lymphoid cells (spread assay); type: cell-based
Procedure: Assay for Inhibition of HIV-1 Replication
Assays for the inhibition of acute HIV-1 infection of T-lymphoid cells were conducted in accordance with Vacca, J. P. et al, Proc. Natl. Acad. Sci. USA 1994, 91: 4096.

[9] = Human immunodeficiency virus 1, IIIB, HeLaP4-2, HeLa P4-2 cells

CC[C@H]1COC[C@@H](N(C)C(=O)C(=O)N(C)C)c2nc(C(=O)NCc3ccc(F)cc3)c(O)c(=O)n21 [Compound 5A, N-((6S,10S)-6-ethyl-2-{[(4-fluorobenzyl)amino]carbonyl}-3-hydroxy-4-oxo-6,7,9,10-tetrahydro-4-pyrimido[1,2-][1,4]oxazepin-10-yl)-N N′N′-trimethylethanediamide]
IC50 [1]: 46 nM
Number of fold shift in IC50 versus wild type IIIB, E92Q [2]: 2
Number of fold shift in IC50 versus wild type IIIB, Y143R [3]: 1
Number of fold shift in IC50 versus wild type IIIB, Q148R [4]: 1
Number of fold shift in IC50 versus wild type IIIB, G140S/Q148H [5]: 4
Number of fold shift in IC50 versus wild type IIIB, N155H [6]: 1
IC50 [7, 9]: 28 nM
IC95 (nM) in the presence of 10% FBS [8]: 12 nM

CC1(C)OCCn2c1nc(C(=O)NCc1ccc(F)cc1)c(O)c2=O [Compound Z, N-[(4-fluorophenyl)methyl]-3-hydroxy-9,9-dimethyl-4-oxo-4,6,7,9-tetrahydro-6H-pyrimido[2,1-c][1,4]oxazine-2-carboxamide, reference compound]
Number of fold shift in IC50 versus wild type IIIB, E92Q [2]: 26
Number of fold shift in IC50 versus wild type IIIB, Y143R [3]: 1
Number of fold shift in IC50 versus wild type IIIB, Q148R [4]: >34
Number of fold shift in IC50 versus wild type IIIB, G140S/Q148H [5]: >34
Number of fold shift in IC50 versus wild type IIIB, N155H [6]: 32
IC50 ([7]; HeLa P4-2 cells): 34 nM

CCN(C(=O)C(=O)N(C)C)[C@@H]1CC[C@H](OC)Cn2c1nc(C(=O)NCc1ccc(F)cc1)c(O)c2=O [Compound 6A, N-ethyl-N-((7S,10R)-2-{[(4-fluorobenzyl)amino]carbonyl}-3-hydroxy-7-methoxy-4-oxo-4,6,7,8,9,10-hexahydropyrimido [1,2-a]azepin-10-yl)-N′,N′-dimethylethanediamide]
Number of fold shift in IC50 versus wild type IIIB, E92Q [2]: 3
Number of fold shift in IC50 versus wild type IIIB, Y143R [3]: 3
Number of fold shift in IC50 versus wild type IIIB, Q148R [4]: 1
Number of fold shift in IC50 versus wild type IIIB, G140S/Q148H [5]: 2
Number of fold shift in IC50 versus wild type IIIB, N155H [6]: 2
IC50 [7, 9]: 16 nM
IC95 (nM) in the presence of 10% FBS [8]: 12 nM

CC[C@H]1COC[C@H](N(C)C(=O)C(=O)N(C)C)c2nc(C(=O)NCc3ccc(F)cc3)c(O)c(=O)n21 [Compound 5B]
IC50 [1]: 40 nM
Number of fold shift in IC50 versus wild type IIIB, E92Q [2]: 1
Number of fold shift in IC50 versus wild type IIIB, Y143R [3]: 2
Number of fold shift in IC50 versus wild type IIIB, Q148R [4]: 1
Number of fold shift in IC50 versus wild type IIIB, G140S/Q148H [5]: 11
Number of fold shift in IC50 versus wild type IIIB, N155H [6]: 3
IC50 [7, 9]: 42 nM
IC95 (nM) in the presence of 10% FBS [8]: 10 nM

CO[C@]1(C)CC[C@@H](N(C)C(=O)C(=O)N(C)C)c2nc(C(=O)NCc3ccc(F)c(C)c3)c(O)c(=O)n2C1 [Compound 2A, N-((7R,10R)-2-{[(4-fluoro-3-methylbenzyl)amino]carbonyl}-3-hydroxy-7-methoxy-7-methyl-4-oxo-4,6,7,8,9,10-hexahydropyrimido[1,2-a]azepin-10-yl)-N,N′,N′-trimethylethanediamide]
IC50 [1]: 37 nM
Number of fold shift in IC50 versus wild type IIIB, E92Q [2]: 1
Number of fold shift in IC50 versus wild type IIIB, Y143R [3]: 2
Number of fold shift in IC50 versus wild type IIIB, Q148R [4]: 1
Number of fold shift in IC50 versus wild type IIIB, G140S/Q148H [5]: 10
Number of fold shift in IC50 versus wild type IIIB, N155H [6]: 2
IC50 [7, 9]: 17 nM
IC95 (nM) in the presence of 10% FBS [8]: 14 nM

Cc1cc(CNC(=O)c2nc3n(c(=O)c2O)[C@@H](C)COC[C@H]3N(C)C(=O)C(=O)N(C)C)ccc1F [Compound 4A, N-((6S,10S)-2-{[(4-fluoro-3-methylbenzyl)amino]carbonyl}-3-hydroxy-6-methyl-4-oxo-6,7,9,10-tetrahydro-4H-pyrimido[1,2-d][1,4]oxazepin-10-yl)-N,N′,N′-trimethylethanediamide]
IC50 [1]: 38 nM
Number of fold shift in IC50 versus wild type IIIB, E92Q [2]: 1
Number of fold shift in IC50 versus wild type IIIB, Y143R [3]: 2
Number of fold shift in IC50 versus wild type IIIB, Q148R [4]: 2
Number of fold shift in IC50 versus wild type IIIB, G140S/Q148H [5]: 12
Number of fold shift in IC50 versus wild type IIIB, N155H [6]: 2
IC50 [7, 9]: 19 nM
IC95 (nM) in the presence of 10% FBS [8]: 10 nM

Reference: US8513234B2, “HIV integrase inhibitors” (Merck Sharp & Dohme Corp., priority 2008, dated 2013)
